ChEMBL document CHEMBL1151780, “Correlation of inhibitor effects on enzyme activity and thermal stability for the integral membrane protein fatty acid amide hydrolase” (Bioorg Med Chem Lett, 2008)

Tests used:
[1] = target: T1, Fatty-acid amide hydrolase 1 (Homo sapiens, UniProt O00519); assay: Inhibition of FAAH at pH 9
T1 sequence (O00519 whole entry): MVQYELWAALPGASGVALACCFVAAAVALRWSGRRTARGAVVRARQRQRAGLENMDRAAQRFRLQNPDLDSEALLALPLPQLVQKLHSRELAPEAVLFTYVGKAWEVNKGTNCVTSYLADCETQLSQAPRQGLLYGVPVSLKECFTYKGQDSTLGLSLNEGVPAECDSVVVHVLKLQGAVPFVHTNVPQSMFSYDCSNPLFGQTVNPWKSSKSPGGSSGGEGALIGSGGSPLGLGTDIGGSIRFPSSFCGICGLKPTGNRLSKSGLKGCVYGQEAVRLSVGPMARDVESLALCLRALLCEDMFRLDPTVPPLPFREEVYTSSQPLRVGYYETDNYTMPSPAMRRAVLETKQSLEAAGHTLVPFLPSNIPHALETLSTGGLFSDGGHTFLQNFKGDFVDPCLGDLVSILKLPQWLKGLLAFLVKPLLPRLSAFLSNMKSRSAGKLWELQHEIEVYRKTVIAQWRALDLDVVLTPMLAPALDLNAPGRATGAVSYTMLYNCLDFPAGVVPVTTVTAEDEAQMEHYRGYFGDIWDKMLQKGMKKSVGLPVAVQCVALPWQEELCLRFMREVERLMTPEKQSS

[2] = target: T2, Fatty-acid amide hydrolase 1 (Homo sapiens) (UniProt O00519)
T2 sequence (whole entry): T1 sequence (O00519 whole entry)
Description: Binding affinity to FAAH assessed as thermal stability by measuring melting temperature

[3] = target: T1, Fatty-acid amide hydrolase 1; assay: Inhibition of FAAH at pH 7.5

`O=C(O)c1cccc(-c2cnc(C(=O)CCc3ccc(-c4ccc(CN5CCSCC5)cc4)cc3)o2)n1` was tested, and the Ki [1] was 28 nM and the Tm [2] was 65.3 °C.
`O=C(CCCCCCc1ccccc1)c1ncc(-c2ccccn2)o1` gave a Tm [2] of 58.5 °C.
`O=C(O)c1cccc(-c2cnc(C(=O)CCCCCCc3ccccc3)o2)n1` was tested, and the Ki [3] was 10.4 nM.
In the case of `O=C(O)c1cccc(-c2nnc(C(=O)CCCCCCc3ccccc3)o2)n1`, the Ki [1] is reported as 14 nM and the Tm [2] is reported as 64.3 °C.
For `O=C(CCCCCCc1ccccc1)c1ncc(-c2cccc(-c3nnn[nH]3)n2)o1`, the Ki [1] was 40 nM and the Tm [2] was 54.7 °C.
`NC(=O)c1cccc(-c2cnc(C(=O)CCCCCCc3ccccc3)o2)n1` gave a Tm [2] of 55 °C.
With `O=C(O)c1cccc(-c2cnc(C(=O)CCc3ccc(-c4ccccc4)cc3)o2)n1` the Ki [1] was 22 nM.
For `O=C(CCc1ccc(-c2ccccc2)cc1)c1ncc(-c2ccccn2)o1`, the Tm [2] was 59.9 °C.
`COC(=O)c1cccc(-c2cnc(C(=O)CCCCCCc3ccccc3)o2)n1` showed a Tm [2] of 53.4 °C.
Work on `O=C(CCCCCCc1ccccc1)c1nnc(-c2ccccn2)o1` yielded a Ki [1] of 0.29 nM and a Tm [2] of 60.6 °C.
`O=C(CCCCCCc1ccccc1)c1ncc(-c2ccccc2)o1` gave a Tm [2] of 47.2 °C.
